Data on one compound can be found in PMC7070167, “Cell‐permeable high‐affinity tracers for Gq proteins provide structural insights, reveal distinct binding kinetics and identify small molecule inhibitors” (British Journal of Pharmacology, 2020).

The assay addresses T1, Gq proteins (Homo sapiens, UniProt P50148).
T1 construct: Native cell membrane preparations from rat brain cortex and human blood platelets; host or cells: human platelets (intact suspension or membrane preparation)
T1 sequence (P50148 1-359): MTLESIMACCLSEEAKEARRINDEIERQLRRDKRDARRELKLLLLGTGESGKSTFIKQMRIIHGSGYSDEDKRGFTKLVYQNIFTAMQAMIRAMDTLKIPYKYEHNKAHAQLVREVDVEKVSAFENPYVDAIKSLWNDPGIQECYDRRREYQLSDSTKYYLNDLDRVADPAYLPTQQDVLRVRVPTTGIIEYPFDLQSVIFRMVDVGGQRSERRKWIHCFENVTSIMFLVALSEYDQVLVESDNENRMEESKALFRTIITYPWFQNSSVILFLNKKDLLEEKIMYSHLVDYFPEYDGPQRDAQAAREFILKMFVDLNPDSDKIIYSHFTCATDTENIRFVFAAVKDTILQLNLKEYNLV
Nature of the assay: High-throughput (96-well) competition binding assay at human platelet membranes. The conditions noted are these: for Ki: versus [³H]PSB-15900 (5 nM), high-throughput 96-well format, 37°C. Here is the method:
The experiments were performed in 50‐mM Tris–HCl buffer, pH 7.4. The final assay volume of 200 μl contained 5 μl of test compound in DMSO, 50 μl of [^3H]PSB‐15900 or [^3H]PSB‐16254, respectively, in buffer, 5 nM of final concentration, and 100 μl of human platelet membrane preparation (50 μg of protein) or intact human platelets (7.5 × 10^6 cells/vial). Non‐specific binding was determined in the presence of 5‐μM FR. The incubation was started by the addition of membrane preparation and was performed at 37°C for 1 hr with gentle shaking. It was terminated by rapid vacuum filtration through GF/C glass‐fibre filters using a Brandel 24‐well harvester. The filters were rinsed three times with approximately 3 ml each of ice‐cold Tris–HCl buffer, 50 mM, pH 7.4 containing 0.1% Tween 20 and 0.1% BSA, to separate bound from free radioligand. The filters were punched out and transferred to scintillation vials. Luma Safe® scintillation cocktail (2.5 ml) was added, and after 6 hr of incubation, the samples were counted for 1 min each, using a liquid scintillation counter (counting efficiency 53%). Experiments in the presence of GTP were additionally performed after preincubation of the membrane preparation with GTP for 1 hr. pIC50 and pKi values were calculated using equations for one‐site competition as implemented in GraphPad Prism 6.01 (GraphPad Inc., La Jolla, CA, USA).
Competition binding experiments were performed as described above (for incubation conditions, washing steps, and buffers) but on 96‐well plates using a Brandel 96‐well plate harvester with GF/C Unifilters (Perkin‐Elmer). After harvesting, 50 μl per cavity of Ultima Gold scintillation cocktail (Perkin‐Elmer) was added, and counting was performed as described above.

Read-outs that look alike come from different tables or passages of the source. *1 amine or outer side, *2 acyl side, *3 side chain or, on linkers, in order; H or OH if unused. Where a SMILES comes first, the peptide text is derived from it. Bridges are numbered along the chain shown (N, C = ends). [ ]: non-standard residue; d: D form. The star is where a group is joined. Leu(3R-OH,Nα-propionyl) = CCC(=O)N[C@H](C(=O)*)[C@H](O)C(C)C; X1 = CC(C)[C@@H](O[*:3])[C@H](N[*:1])C(=O)[*:2]; NMeT = CN[C@H](C(=O)O)[C@@H](C)O; dPhLac = O=C(O)[C@H](O)Cc1ccccc1; NMeA = CN[C@@H](C)C(=O)O; NMeDha = C=C(NC)C(=O)O

For `C=C1C(=O)N[C@@H](C)C(=O)N(C)[C@@H](C)C(=O)N[C@@H]([C@H](OC(=O)[C@@H](NC(=O)CC)[C@H](O)C(C)C)C(C)C)C(=O)N(C)[C@@H]([C@@H](C)OC)C(=O)O[C@H](C(C)C)[C@H](NC(C)=O)C(=O)O[C@H](Cc2ccccc2)C(=O)N1C` [FR, FR900359] (Ac-[X1][dPhLac][NMeDha]A[NMeA][X1](Leu(3R-OH,Nα-propionyl))[NMeT](Me); ester 1-C), for the setting “1 μM, 96‐well plates”, the “inhibition of radioligand binding (positive control)” value is on record as “complete inhibition”. Further, the Ki reads like this: (read-out: Ki) 6.56 ± 1.92 nM; (read-out: pKi (converted)) 6.46 nM.
